Consider 16 compounds from ChEMBL document CHEMBL4000213, “New antiprotozoal agents: Synthesis and biological evaluation of different 4-(7-chloroquinolin-4-yl) piperazin-1-yl)pyrrolidin-2-yl)methanone derivatives” (Bioorg Med Chem Lett, 2017).

Activity calls are given as the source filed them. No cut-off for these calls is given here.

Data set [1] is described as follows: Antioxidant activity assessed as inhibition of ferrous chloride-induced lipid peroxidation at 50 uM preincubated for 24 hrs followed by ferrous chloride addition relative to control. The format is functional.
For data set [2], the system named is Plasmodium falciparum. Kind of data set: Antimalarial activity against chloroquine-sensitive Plasmodium falciparum NF54 infected in erythrocytes measured after 48 hrs by Malstat/nitroblue tetrazolium/phenazine ethosulphate reagent based LDH assay. The format is functional, cell-based. The conditions noted are these: NF54, 48 h.
Data set [3] has as its system HEK293. Nature of the data set: Cytotoxicity against HEK293 cells measured after 48 hrs by MTT assay. The format is cell-based. The conditions noted are these: Homo sapiens, HEK293, 48 h.
Data set [4] can be described thus: Selectivity index, ratio of IC50 for cytotoxicity against HEK293 cells to IC50 for anti-malarial activity against chloroquine-sensitive Plasmodium falciparum NF54 infected in erythrocytes. The conditions noted are these: human; read-out: Ratio IC50. The format is toxicity, cell-based.
The test system of data set [5] is Anopheles arabiensis. Nature of the data set: Larvicidal activity against Anopheles arabiensis KGB at 0.5 uM measured after 24 hrs relative to control. Type of data set: functional.
Data set [6] has as its system Entamoeba histolytica. Nature of the data set: Anti-amoebic activity against trophozoites of Entamoeba histolytica HM-1:IMSS gassed with nitrogen for 10 mins measured after 72 hrs by eosin staining based micro dilution method. Type of data set: functional.
Data set [7] has as its system Anopheles arabiensis. Kind of data set: Larvicidal activity against Anopheles arabiensis KGB measured after 24 hrs. The format is functional. The conditions noted are these: read-out: LD50 (the source's name).

`Cc1cc(C)c(S(=O)(=O)N2CCC[C@@H]2C(=O)N2CCN(c3ccnc4cc(Cl)ccc34)CC2)c(C)c1`: the inhibition in data set [1] was under 1%. Besides, the IC50 in data set [2] stood at 19.6 µM; in data set [3] it was 14.7 µM; in data set [6] it was 0.14 µM. The selectivity ratio in data set [4] was determined as 0.75. Also, in data set [5], the outcome was inactive.

For the compound `CCCS(=O)(=O)N1CCC[C@@H]1C(=O)N1CCN(c2ccnc3cc(Cl)ccc23)CC1`, the inhibition in data set [1] is under 1%. In data set [5], the outcome was inactive. Also, in data set [6], the IC50 is 6.91 µM.

Turning to `Cc1c(C)c2c(c(C)c1O)CCC(C)(C(=O)O)O2` (stereo unspecified), the inhibition in data set [1] came out at 74%.

As to `COc1ccc(S(=O)(=O)N2CCC[C@@H]2C(=O)N2CCN(c3ccnc4cc(Cl)ccc34)CC2)cc1`, in data set [1], the inhibition is under 1%. For the same compound, the figures for the IC50 in data set [2], in data set [3] and in data set [6] were 4.02 µM, 57.7 µM and 5.73 µM, respectively. In addition, the selectivity ratio in data set [4] stood at 14.3. The outcome in data set [5] was inactive.

Regarding `Clc1ccc(C(c2ccc(Cl)cc2)C(Cl)(Cl)Cl)cc1` [CHLOROPHENOTHANE], the LC50 in data set [7] stood at 0.5 µM. The Activity in data set [5] came out at 100%.

Turning to `O=C([C@H]1CCCN1S(=O)(=O)c1ccc(Cl)cc1)N1CCN(c2ccnc3cc(Cl)ccc23)CC1`, in data set [1], the inhibition was under 1%. The IC50 in data set [2] is 6.33 µM; in data set [3] it was 46 µM; in data set [6], 0.31 µM. For the same compound, the selectivity ratio in data set [4] was 7.27. Besides, the result in data set [5] was inactive.

With `C=C[C@H]1CN2CC[C@H]1C[C@H]2[C@H](O)c1ccnc2ccc(OC)cc12` [QUININE], the IC50 in data set [2] came out at 0.18 µM; in data set [3] it was 276 µM. For the same compound, in data set [4], the selectivity ratio is 1490.

Regarding `O=C([C@H]1CCCN1S(=O)(=O)c1ccccc1)N1CCN(c2ccnc3cc(Cl)ccc23)CC1`, in data set [1], the inhibition was under 1%. Moreover, the IC50 in data set [2] came to 5.33 µM; in data set [3] it was 64.1 µM; in data set [6], 1.26 µM. Moreover, the selectivity ratio in data set [4] was found to be 12. The result in data set [5] was inactive.

As to `O=C([C@H]1CCCN1S(=O)(=O)c1ccccc1[N+](=O)[O-])N1CCN(c2ccnc3cc(Cl)ccc23)CC1`, the inhibition in data set [1] is under 1%. Besides, the values for the half-maximal inhibitory concentration (IC50) in data set [2], in data set [3] and in data set [6] were 4.08 µM, 57.7 µM and 2.08 µM, respectively. The selectivity ratio in data set [4] turned out to be 14.2. In addition, the result in data set [5] was inactive.

Regarding `O=C([C@H]1CCCN1S(=O)(=O)c1cc(Cl)ccc1Cl)N1CCN(c2ccnc3cc(Cl)ccc23)CC1`, the inhibition in data set [1] was under 1%. In addition, the IC50 in data set [2] turned out to be 4.21 µM; in data set [3] it was 38 µM; in data set [6], 8.89 µM. Moreover, the selectivity ratio in data set [4] stood at 9.02. The result in data set [5] was inactive.

As to `O=C([C@H]1CCCN1S(=O)(=O)c1ccc2ccccc2c1)N1CCN(c2ccnc3cc(Cl)ccc23)CC1`, the inhibition in data set [1] is under 1%. Moreover, the IC50 was 3.45 µM in data set [2], 24.4 µM in data set [3] and 0.34 µM in data set [6]. The selectivity ratio in data set [4] amounted to 7.06. Besides, the result in data set [5] was inactive.

`Cc1ccc(S(=O)(=O)N2CCC[C@@H]2C(=O)N2CCN(c3ccnc4cc(Cl)ccc34)CC2)cc1`: in data set [1], the inhibition was under 1%. The IC50 was found to be 1.42 µM in data set [2], 81.2 µM in data set [3] and 0.34 µM in data set [6]. In addition, in data set [4], the selectivity ratio came out at 57.1. Further, the outcome in data set [5] was inactive.

The compound `CC[C@@]1(O)C(=O)OCc2c1cc1n(c2=O)Cc2cc3ccccc3nc2-1` [CAMPTOTHECIN] yielded an IC50 in data set [3] of 0.01 µM.

Take `O=C(CN1CCN(c2ccnc3cc(Cl)ccc23)CC1)NC1CCCCC1`: in data set [6], the IC50 was determined as 0.86 µM.

Take `O=C(CN1CCN(c2ccnc3cc(Cl)ccc23)CC1)Nc1ccc(F)cc1`: the IC50 in data set [6] was found to be 0.41 µM.

With `CC(C)(C)c1ccc(S(=O)(=O)N2CCC[C@@H]2C(=O)N2CCN(c3ccnc4cc(Cl)ccc34)CC2)cc1`, the inhibition in data set [1] is under 1%. Also, the results for the IC50 in data set [2], in data set [3] and in data set [6] were 3.21 µM, 53.1 µM and 0.77 µM, respectively. The selectivity ratio in data set [4] was 16.5. Further, the result in data set [5] was inactive.
